Here are results for 18 compounds from US20120214847A1, “2-[1-PHENYL-5-HYDROXY-4a-SUBSTITUTED-HEXAHYDROCYCLOPENTA[F]INDAZOL-5-YL]ETHYL PHENYL DERIVATIVES AS GLUCOCORTICOID RECEPTOR LIGANDS” (Merck Sharp & Dohme Corp., priority 2009, published 2012).

SMILES strings stand for the structures.

The term Ki denotes a measure of affinity in units of concentration, obtained from inhibition or displacement. A low value points to higher affinity.

For this assay, the target named is T1, glucocorticoid receptor (Homo sapiens, UniProt P04150).
T1 construct: endogenous in cells; host or cells: HeLa (ATCC) cell lysate supernatant
T1 sequence (P04150 1-777): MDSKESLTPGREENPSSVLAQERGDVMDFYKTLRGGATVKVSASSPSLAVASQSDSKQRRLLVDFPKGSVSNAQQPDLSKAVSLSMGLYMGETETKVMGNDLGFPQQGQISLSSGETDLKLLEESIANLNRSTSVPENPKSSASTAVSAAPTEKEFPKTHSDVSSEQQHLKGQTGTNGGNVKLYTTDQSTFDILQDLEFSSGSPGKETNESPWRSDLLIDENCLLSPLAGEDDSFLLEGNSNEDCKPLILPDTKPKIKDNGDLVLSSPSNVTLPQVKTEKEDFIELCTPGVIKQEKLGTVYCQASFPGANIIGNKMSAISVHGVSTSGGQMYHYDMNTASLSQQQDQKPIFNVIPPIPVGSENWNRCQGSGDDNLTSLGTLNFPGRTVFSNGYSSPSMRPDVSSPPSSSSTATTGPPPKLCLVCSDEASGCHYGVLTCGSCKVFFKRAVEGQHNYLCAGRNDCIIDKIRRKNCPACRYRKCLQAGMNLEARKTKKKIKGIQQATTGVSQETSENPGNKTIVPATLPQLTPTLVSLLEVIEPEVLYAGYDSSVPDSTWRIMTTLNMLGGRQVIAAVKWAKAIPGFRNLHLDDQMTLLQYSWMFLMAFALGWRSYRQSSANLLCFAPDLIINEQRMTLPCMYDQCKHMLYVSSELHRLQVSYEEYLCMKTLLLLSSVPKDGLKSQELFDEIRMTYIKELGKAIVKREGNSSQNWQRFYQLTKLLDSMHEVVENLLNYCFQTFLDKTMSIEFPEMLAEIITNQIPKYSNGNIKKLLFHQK
The assay can be described thus: Ligand binding assay (GRBind), 3H-dexamethasone displacement in HeLa cell lysate. The settings on record: 3H-DEX tracer. As to the method:
Binding Buffer: TEGM (10 mM Tris-HCl, 1 mM EDTA, 10% glycerol, 1 mM betamecaptoethanol, 10 mM Sodium Molybdate, pH 7.2)
50% HAP Slurry: Calbiochem Hydroxylapatite, Fast Flow, in 10 mM Tris, pH 8.0 and 1 mM EDTA.
Wash Buffer: 40 mM Tris, pH7.5, 100 mM KCl, 1 mM EDTA and 1 mM EGTA. 95% EtOH Dexmethasone-methyl-3H, (DEXA*); (Amersham cat#TRK645) Dexamethasone(DEX) (Sigma, cat#01756):
Hydroxylapatite Fast Flow; Calbiochem Cat#391947
25 Molybdate=Molybdic Acid (Sigma, M1651)
5 Cells (Hall R. E., et al., European Journal of Cancer, 30A: 484-490 (1994)) HeLa (ATCC) cultured in RPMI 1640 (Gibed 11835-055) containing 20 mM Hepes, 4 mM L-glu, 10 ug/ml of human insulin (Sigma, 1-0259), 10% FBS and 20 uglml of Gentamicin (Gibco#15710072) are rinsed twice in PBS. Phenol red-free Trypsin-EDTA is diluted in the same PBS 1:10. The cell layers are rinsed with IX Trypsin, extra Trypsin is poured out, and the cell layers are incubated at 37° C. for 2 min. The flask is tapped and checked for signs of cell detachment. Once the cells begin to slide off the flask, the complete media is added. The cells are counted at this point, then diluted to the appropriate concentration and split into flasks or dishes for further culturing (Usually 1:3 to 1:6 dilution).
Preparation of HeLa Cell Lysate
When the cells are 70 to 85% confluent, they are detached as described above, and collected by centrifuging at 1000 g for 10 min at 4° C. The cell pellet is washed twice with TEGM (10 mM Tris-HCl, 1 mM EDTA, 10% glycerol, 1 mM beta-mercaptoethanol, 10 mM Sodium Molybdate, pH 7.2). After the final wash, the cells are resuspended in TEGM at a concentration of 10^7 cells/mL. The cell suspension is snap frozen in liquid nitrogen or ethanol/dry ice bath and transferred to −80° C. freezer on dry ice. Before setting up the binding assay, the frozen samples are left on ice-water to just thaw. Then the samples are centrifuged at 12,500 g to 20,000 g for 30 min at 4° C. The supernatant is used to set-up assay right away. If using 50 μL of supernatant, the test compound can be prepared in 50 μL of the TEGM buffer.
Procedure for Multiple Compound Screening
1×TEGM buffer is prepared, and the isotope-containing assay mixture is prepared in the following order: EtOH (2% final concentration in reaction), 3H-DEX (Amersham Biosciences) and 1×TEGM. [e.g. For 100 samples, 200 JlL (100×2) of EtOH+4.25 JlL of 1:10 ^3H-Dex stock+2300 μL (100×23) 1×TEGM]. The compound is serially diluted, e.g., if starting final conc. is 1 μM, and the compound is in 25 μL of solution, for duplicate samples, 75 μL of 4×1 μM solution is made and 3 μL of 100). 1M is added to 72 μL of buffer, and 1:5 serial dilution.
25 μL of ^3H-DEX (6 nM) trace and 25 μL, compound solution are first mixed together, followed by addition of 50 μL receptor solution. The reaction is gently mixed, spun briefly at about 200 rpm and incubated at 4° C. overnight. 100 μL of 50% HAP slurry is prepared and added to the incubated reaction which is then vortexed and incubated on ice for 5 to 10 min. The reaction mixture is vortexed twice more to resuspend HAP while incubating reaction. The samples in 96-well format are then washed in wash buffer using the FilterMate™ Universal Harvester plate washer (Packard). The washing process transfers HAP pellet containing ligand-bound expressed receptor to Unifilter-96 GFIB filter plate (Packard). The HAP pellet on the filter plate is incubated with […] of MICROSCINT (Packard) scintillant for 30 min before being counted on the TopCount microscintillation counter (Packard). IC50s are calculated using DEX as a reference.
Compound `OC(C[C@]1(O)CCC2=Cc3c(cnn3-c3ccc(F)cc3)C[C@@]21C1CC1)c1ccccn1` (stereo partly drawn) [Example 78, (4aR,5R)-4a-Cyclopropyl-1-(4-fluorophenyl)-5-[2-hydroxy-2-(pyridin-2-yl)ethyl]-1,4,4a,5,6,7-hexahydrocyclopenta[f]indazol-5-ol] had a Ki of 2.96 nM.
Then `NS(=O)(=O)c1ccccc1CC[C@]1(O)CCC2=Cc3c(cnn3-c3cccnc3)C[C@@]21C1CC1` [Example 24, 2-{2-[(4aR,5R)-4a-Cyclopropyl-5-hydroxy-1-(pyridin-3-yl)-1,4,4a,5,6,7-hexahydrocyclopenta[f]indazol-5-yl]ethyl}benzenesulfonamide], with 2.19 nM.
Next, `CC[C@]12Cc3cnn(-c4ccc(F)cc4)c3C=C1CC[C@@]2(O)CCc1ccccc1C(O)C(N)=O` (stereo partly drawn) [Example 25, 2-(2-{2-[(4aS,5R)-4a-Ethyl-1-(4-fluorophenyl)-5-hydroxy-1,4,4a,5,6,7-hexahydrocyclopenta[f]indazol-5-yl]ethyl}phenyl)-2-hydroxyacetamide]: 3.23 nM; `CC[C@]12Cc3cnn(-c4ccccc4)c3C=C1CC[C@@]2(O)CC(O)c1ccccn1` (single isomer, unassigned) [Example 67b]: 5.46 nM; `CC[C@]12Cc3cnn(-c4ccc(F)cc4)c3C=C1CC[C@@]2(O)CCc1cc(C)ccn1` [Example 33, (4aS,5R)-4a-Ethyl-1-(4-fluorophenyl)-5-[2-(4-methylpyridin-2-yl)ethyl]-1,4,4a,5,6,7-hexahydrocyclopenta[f]indazol-5-ol]: 2.33 nM.
Compound `CC[C@]12Cc3cnn(-c4ccc(F)cc4)c3C=C1CC[C@@]2(O)CCc1cccc(F)c1CC(N)=O` [Example 60, 2-(2-{2-[(4aS,5R)-4a-Ethyl-1-(4-fluorophenyl)-5-hydroxy-1,4,4a,5,6,7-hexahydrocyclopenta[f]indazol-5-yl]ethyl}-6-fluorophenyl)acetamide] showed a Ki of 2.33 nM.
Next, `CC[C@]12Cc3cnn(-c4ccc(F)cc4)c3C=C1CC[C@@]2(O)CCc1cc(F)ccn1` [Example 18, (4aS,5R)-4a-Ethyl-1-(4-fluorophenyl)-5-[2-(4-fluoropyridin-2-yl)ethyl]-1,4,4a,5,6,7-hexahydrocyclopenta[f]indazol-5-ol]: 1.73 nM; `O=C(NCCO)c1ccccc1CC[C@]1(O)CCC2=Cc3c(cnn3-c3ccc(F)cc3)C[C@@]21C1CC1` [Example 50, 2-{2-[(4aR,5R)-4a-Cyclopropyl-1-(4-fluorophenyl)-5-hydroxy-1,4,4a,5,6,7-hexahydrocyclopenta[f]indazol-5-yl]ethyl}-N-(2-hydroxyethyl)benzamide]: 2.09 nM; `COc1ccnc(CC[C@]2(O)CCC3=Cc4c(cnn4-c4ccc(F)cc4)C[C@@]32C2CC2)c1C(N)=O` [Example 54, 2-{2-[(4aR,5R)-4a-Cyclopropyl-1-(4-fluorophenyl)-5-hydroxy-1,4,4a,5,6,7-hexahydrocyclopenta[f]indazol-5-yl]ethyl}-4-methoxypyridine-3-carboxamide]: 2.44 nM.
`CC[C@]12Cc3cnn(-c4ccc(F)cc4)c3C=C1CC[C@@]2(O)CC1OC(=O)c2ccccc21` (stereo partly drawn) [Example 71, 3-{[(4aS,5R)-4a-Ethyl-1-(4-fluorophenyl)-5-hydroxy-1,4,4a,5,6,7-hexahydrocyclopenta[f]indazol-5-yl]methyl}-2-benzofuran-1(3H)-one] displayed a Ki of 2.97 nM.
As to `NC(=O)CNC(=O)c1cc(F)cnc1CC[C@]1(O)CCC2=Cc3c(cnn3-c3ccc(F)cc3)C[C@@]21C1CC1` [Example 44, N-(2-Amino-2-oxoethyl)-2-{2-[(4aR,5R)-4a-cyclopropyl-1-(4-fluorophenyl)-5-hydroxy-1,4,4a,5,6,7-hexahydrocyclopenta[f]indazol-5-yl]ethyl}-5-fluoropyridine-3-carboxamide], the affinity, expressed as Ki, was 4.6 nM.
Next, `CC[C@]12Cc3cnn(-c4ccc(F)cc4)c3C=C1CC[C@@]2(O)CC(O)c1cncc(F)c1` (stereo partly drawn) [Example 73, (4aS,5R)-4a-Ethyl-1-(4-fluorophenyl)-5-[2-(5-fluoropyridin-3-yl)-2-hydroxyethyl]-1,4,4a,5,6,7-hexahydrocyclopenta[f]indazol-5-ol]: 5.67 nM; `NC(=O)c1ccccc1CC[C@]1(O)CCC2=Cc3c(cnn3-c3cccc(F)c3)C[C@@]21C1CC1` [Example 7, 2-{2-[(4aR,5R)-4a-Cyclopropyl-1-(3-fluorophenyl)-5-hydroxy-1,4,4a,5,6,7-hexahydrocyclopenta[f]indazol-5-yl]ethyl}benzamide]: 3.22 nM; `NC(=O)CNC(=O)c1ccccc1CC[C@]1(O)CCC2=Cc3c(cnn3-c3ccc(F)cc3)C[C@@]21C1CC1` [Example 47, N-(2-Amino-2-oxoethyl)-2-{2-[(4aR,5R)-4a-cyclopropyl-1-(4-fluorophenyl)-5-hydroxy-1,4,4a,5,6,7-hexahydrocyclopenta[f]indazol-5-yl]ethyl}benzamide]: 1.43 nM.
Then `CC[C@]12Cc3cnn(-c4ccc(F)cc4)c3C=C1CC[C@@]2(O)CCc1ncc(F)cc1C(N)=O` [Example 53, 2-{2-[(4aS,5R)-4a-Ethyl-1-(4-fluorophenyl)-5-hydroxy-1,4,4a,5,6,7-hexahydrocyclopenta[f]indazol-5-yl]ethyl}-5-fluoropyridine-3-carboxamide], with 5.97 nM; and `NC(=O)c1cc(F)ccc1CC[C@]1(O)CCC2=Cc3c(cnn3-c3ccc(F)cc3)C[C@@]21C1CC1` [Example 39, 2-{2-[(4aR,5R)-4a-Cyclopropyl-1-(4-fluorophenyl)-5-hydroxy-1,4,4a,5,6,7-hexahydrocyclopenta[f]indazol-5-yl]ethyl}-5-fluorobenzamide], with 1.98 nM; and `CC[C@]12Cc3cnn(-c4ccccc4)c3C=C1CC[C@@]2(O)CCc1cccc(F)c1C#N` [Example 15, 2-{2-[(4aS,5R)-4a-Ethyl-5-hydroxy-1-phenyl-1,4,4a,5,6,7-hexahydrocyclopenta[f]indazol-5-yl]ethyl}-6-fluorobenzonitrile], with 1.28 nM.
Regarding `CC[C@]12Cc3cnn(-c4cccnc4)c3C=C1CC[C@@]2(O)CCc1cccc(F)c1C(N)=O` [Example 14, 2-{2-[(4aS,5R)-4a-Ethyl-5-hydroxy-1-(pyridin-3-yl)-1,4,4a,5,6,7-hexahydrocyclopenta[f]indazol-5-yl]ethyl}-6-fluorobenzamide], the affinity, expressed as Ki, was 8.68 nM.
